These results are taken from US20260355323A1, “CEREBLON-RECRUITING BCL-XL/BCL-2 DUAL DEGRADERS” (University of Florida Research Foundation, Incorporated, priority 2022, published 2026).

Experiment [1] concerns RS4;11 acute lymphoblastic leukemia cells. Put plainly: Cell viability, tetrazolium-based MTS assay, RS4;11. The following applies: Homo sapiens, RS4;11, 48 h, read-out: Anti-Cancer Activity EC50 (48 hr), RS4. How it is done: (§1) Acute lymphoblastic leukemia cells (MOLT-4 and RS4;11) were incubated with increasing concentrations of Bcl-xL/Bcl-2 degraders for 48 h. Cell viability was measured by tetrazolium-based MTS assay.

The test system of experiment [2] is MOLT-4 acute lymphoblastic leukemia cells. Nature of the experiment: Cell viability, tetrazolium-based MTS assay, MOLT-4. The settings on record: Homo sapiens, MOLT-4, 48 h; read-out: Anti-Cancer Activity EC50 (48 hr), MOLT-4. How it is done: as §1

Each structure is given as a SMILES string.

The term EC50 denotes the concentration giving half of the maximal effect. In the case of `CC1(CN2CCN(c3ncc(C(=O)NCCNc4cccc5c4C(=O)N(C4CCC(=O)NC4=O)C5=O)cn3)CC2)CCC(c2ccc(Cl)cc2)=C(CN2CCN(c3ccc(C(=O)NS(=O)(=O)c4ccc(N[C@H](CCN5CCOCC5)CSc5ccccc5)c(S(=O)(=O)C(F)(F)F)c4)cc3)CC2)C1` (stereo partly drawn) [Compound 19, 2-(4-((4′-chloro-4-methyl-6-((4-(4-(((4-(((R)-4-morpholino-1-(phenylthio)butan-2-yl)amino)-3-((trifluoromethyl)sulfonyl)phenyl)sulfonyl)carbamoyl)phenyl)piperazin-1-yl)methyl)-2,3,4,5-tetrahydro-[1,1′-biphenyl]-4-yl)methyl)piperazin-1-yl)-N-(2-((2-(2,6-dioxopiperidin-3-yl)-1,3-dioxoisoindolin-4-yl)amino)ethyl)pyrimidine-5-carboxamide], the figures for the half-maximal effective concentration (EC50) in experiment [1] and in experiment [2] were 0.01 to 0.1 µM and 0.001 to 0.01 µM, respectively.

As for `CC1(CN2CCN(c3ncc(C(=O)NCCCCNc4cccc5c4C(=O)N(C4CCC(=O)NC4=O)C5=O)cn3)CC2)CCC(c2ccc(Cl)cc2)=C(CN2CCN(c3ccc(C(=O)NS(=O)(=O)c4ccc(N[C@H](CCN5CCOCC5)CSc5ccccc5)c(S(=O)(=O)C(F)(F)F)c4)cc3)CC2)C1` (stereo partly drawn) [Compound 20, 2-(4-((4′-chloro-4-methyl-6-((4-(4-(((4-(((R)-4-morpholino-1-(phenylthio)butan-2-yl)amino)-3-((trifluoromethyl)sulfonyl)phenyl)sulfonyl)carbamoyl)phenyl)piperazin-1-yl)methyl)-2,3,4,5-tetrahydro-[1,1′-biphenyl]-4-yl)methyl)piperazin-1-yl)-N-(4-((2-(2,6-dioxopiperidin-3-yl)-1,3-dioxoisoindolin-4-yl)amino)butyl)pyrimidine-5-carboxamide], the EC50 in experiment [1] was in the range of 0.01 to 0.1 µM; in experiment [2] it was 0.001 to 0.01 µM.

For `CC1(CN2CCN(c3ncc(C(=O)NCCCCCCNc4cccc5c4C(=O)N(C4CCC(=O)NC4=O)C5=O)cn3)CC2)CCC(c2ccc(Cl)cc2)=C(CN2CCN(c3ccc(C(=O)NS(=O)(=O)c4ccc(N[C@H](CCN5CCOCC5)CSc5ccccc5)c(S(=O)(=O)C(F)(F)F)c4)cc3)CC2)C1` (stereo partly drawn) [Compound 21, 2-(4-((4′-chloro-4-methyl-6-((4-(4-(((4-(((R)-4-morpholino-1-(phenylthio)butan-2-yl)amino)-3-((trifluoromethyl)sulfonyl)phenyl)sulfonyl)carbamoyl)phenyl)piperazin-1-yl)methyl)-2,3,4,5-tetrahydro-[1,1′-biphenyl]-4-yl)methyl)piperazin-1-yl)-N-(6-((2-(2,6-dioxopiperidin-3-yl)-1,3-dioxoisoindolin-4-yl)amino)hexyl)pyrimidine-5-carboxamide], the IC50 in experiment [1] was in the range of 10 to 100 µM. The EC50 in experiment [2] was in the range of 0.01 to 0.1 µM.

Consider `CC1(CN2CCN(c3ccc(OCCCCCN4CCN(c5cccc6c5C(=O)N(C5CCC(=O)NC5=O)C6=O)CC4)cn3)CC2)CCC(c2ccc(Cl)cc2)=C(CN2CCN(c3ccc(C(=O)NS(=O)(=O)c4ccc(N[C@H](CCN5CCOCC5)CSc5ccccc5)c(S(=O)(=O)C(F)(F)F)c4)cc3)CC2)C1` (stereo partly drawn) [Compound 22, 4-(4-((4′-chloro-4-((4-(5-((5-(4-(2-(2,6-dioxopiperidin-3-yl)-1,3-dioxoisoindolin-4-yl)piperazin-1-yl)pentyl)oxy)pyridin-2-yl)piperazin-1-yl)methyl)-4-methyl-3,4,5,6-tetrahydro-[1,1′-biphenyl]-2-yl)methyl)piperazin-1-yl)-N-((4-(((R)-4-morpholino-1-(phenylthio)butan-2-yl)amino)-3-22 ((trifluoromethyl)sulfonyl)phenyl)sulfonyl)benzamide], for which the EC50 in experiment [1] and in experiment [2] was 0.01 to 0.1 µM in each case.

For the compound `CC1(CN2CCN(c3ccc(C#CCCCN4CCN(c5cccc6c5C(=O)N(C5CCC(=O)NC5=O)C6=O)CC4)cn3)CC2)CCC(c2ccc(Cl)cc2)=C(CN2CCN(c3ccc(C(=O)NS(=O)(=O)c4ccc(N[C@H](CCN5CCOCC5)CSc5ccccc5)c(S(=O)(=O)C(F)(F)F)c4)cc3)CC2)C1` (stereo partly drawn) [Compound 23, 4-(4-((4′-chloro-4-((4-(5-(5-(4-(2-(2,6-dioxopiperidin-3-yl)-1,3-26 dioxoisoindolin-4-yl)piperazin-1-yl)pent-1-yn-1-yl)pyridin-2-yl)piperazin-1-yl)methyl)-4-methyl-3,4,5,6-tetrahydro-[1,1′-biphenyl]-2-yl)methyl)piperazin-1-yl)-N-((4-(((R)-4-morpholino-1-(phenylthio)butan-2-yl)amino)-3-28 ((trifluoromethyl)sulfonyl)phenyl)sulfonyl)benzamide], the EC50 is 0.01 to 0.1 µM in experiment [1] and 10 to 100 µM in experiment [2].

`CC1(CN2CCCN(c3ccc4c(c3)CN(C3CCC(=O)NC3=O)C4=O)CC2)CCN(C[C@]2(C)CCC(c3ccc(Cl)cc3)=C(CN3CCN(c4ccc(C(=O)NS(=O)(=O)c5ccc(N[C@H](CCN6CCCOCC6)CSc6ccccc6)c(S(=O)(=O)C(F)(F)F)c5)cc4)CC3)C2)CC1` (stereo partly drawn) [Compound 136, N-((4-(((R)-4-(1,4-oxazepan-4-yl)-1-(phenylthio)butan-2-yl)amino)-3-((trifluoromethyl)sulfonyl)phenyl)sulfonyl)-4-(4-(((4R)-4′-chloro-4-((4-((4-(2-(2,6-dioxopiperidin-3-yl)-1-oxoisoindolin-5-yl)-1,4-diazepan-1-yl)methyl)-4-methylpiperidin-1-yl)methyl)-4-methyl-3,4,5,6-tetrahydro-[1,1′-biphenyl]-2-yl)methyl)piperazin-1-yl)benzamide]: the concentration giving a half-maximal response (EC50) in experiment [1] and in experiment [2] was below 0.001 µM each time.

For `C[C@@]1(CN2CCC(CN3CCN(c4ccc(C(=O)N[C@H]5CCC(=O)NC5=O)c(F)c4)CC3)CC2)CCC(c2ccc(Cl)cc2)=C(CN2CCN(c3ccc(C(=O)NS(=O)(=O)c4ccc(N[C@H](CCN5CCCOCC5)CSc5ccccc5)c(S(=O)(=O)C(F)(F)F)c4)cc3)CC2)C1` [Compound 137, 4-(4-((1-(((R)-6-((4-(4-(((4-(((R)-4-(1,4-oxazepan-4-yl)-1-(phenylthio)butan-2-yl)amino)-3-((trifluoromethyl)sulfonyl)phenyl)sulfonyl)carbamoyl)phenyl)piperazin-1-yl)methyl)-4′-chloro-4-methyl-2,3,4,5-tetrahydro-[1,1′-biphenyl]-4-yl)methyl)piperidin-4-yl)methyl)piperazin-1-yl)-N-((S)-2,6-dioxopiperidin-3-yl)-2-fluorobenzamide], the EC50 in experiment [1] and in experiment [2] was 0.001 to 0.01 µM each time.

`C[C@@]1(CN2CCC(CN3CCN(c4ccc(C(=O)N[C@@H]5CCC(=O)NC5=O)c(F)c4)CC3)CC2)CCC(c2ccc(Cl)cc2)=C(CN2CCN(c3ccc(C(=O)NS(=O)(=O)c4ccc(N[C@H](CCN5CCCOCC5)CSc5ccccc5)c(S(=O)(=O)C(F)(F)F)c4)cc3)CC2)C1` [Compound 138, 4-(4-((1-(((R)-6-((4-(4-(((4-(((R)-4-(1,4-oxazepan-4-yl)-1-(phenylthio)butan-2-yl)amino)-3-((trifluoromethyl)sulfonyl)phenyl)sulfonyl)carbamoyl)phenyl)piperazin-1-yl)methyl)-4′-chloro-4-methyl-2,3,4,5-tetrahydro-[1,1′-biphenyl]-4-yl)methyl)piperidin-4-yl)methyl)piperazin-1-yl)-N-((R)-2,6-dioxopiperidin-3-yl)-2-fluorobenzamide]: the concentration for a half-maximal effect (EC50) in experiment [1] and in experiment [2] was 0.001 to 0.01 µM in each case.
